{"source": "patent US10759758B2", "about": "“Polymorphic form of N-{6-(hydroxypropan-2-yl)-2-[2-(methylsulphonyl)ethyl]-2H-indazol-5-yl}-6-(trifluoromethyl)pyridine-2-carboxamide” (Bayer Pharma Aktiengesellschaft, priority 2016, dated 2020)", "test": "Thermodynamic stability of the solid forms of compound (I)", "assay_type": "physicochemical", "conditions": "compared with the other solid forms of compound (I)", "data": [{"compound": "CC(C)(O)c1cc2nn(CCS(C)(=O)=O)cc2cc1NC(=O)c1cccc(C(F)(F)F)n1", "note": "[Polymorphic form B, N-{6-(2-Hydroxypropan-2-yl)-2-[2-(methylsulphonyl)ethyl]-2H-indazol-5-yl}-6-(trifluoromethyl)pyridine-2-carboxamide]", "values": [{"measurement": "thermodynamic stability among solid forms", "result": "thermodynamically stable form"}]}]}
